In ChEMBL document CHEMBL1201862, “PubChem BioAssay data set” (2004):
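Interpolation was linear, between the two tested concentrations surrounding the appropriate level; five concentrations were tested over 48 hours in 96-well plates. The concentration for 50% growth inhibition is given as GI50.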 The source made the active and inactive calls. Cut-off read from the data, not from the text of the source: active = GI50 up to about 1.1 µM and inactive = higher.

Legend:
Assay in all cases: inhibition of tumour cell growth, NCI panel, 48 h
[1] = test system: OVCAR-5
[2] = test system: A498
[3] = test system: HCT-116
[4] = test system: UACC-62
[5] = test system: MOLT-4
[6] = test system: HOP-62
[7] = test system: K562
[8] = test system: NCI-H23
[9] = test system: CCRF-CEM
[10] = test system: TK-10
[11] = test system: HL-60
[12] = test system: CAKI-1
[13] = test system: SNB-19
[14] = test system: SW-620
[15] = test system: MDA-N
[16] = test system: HCT-15
[17] = test system: OVCAR-3
[18] = test system: Hs-578T

Compound | GI50 [1] | GI50 [2] | GI50 [3] | GI50 [4] | GI50 [5] | GI50 [6] | GI50 [7] | GI50 [8] | GI50 [9] | GI50 [10] | GI50 [11] | GI50 [12] | GI50 [13] | GI50 [14] | GI50 [15] | GI50 [16] | GI50 [17] | GI50 [18]
Cn1cnc([N+](=O)[O-])c1Sc1nncc2[nH]cnc12 | > 100 µM (inactive) | > 100 µM (inactive) | > 100 µM (inactive) | > 100 µM (inactive) | > 100 µM (inactive) | > 100 µM (inactive) | > 100 µM (inactive) | > 100 µM (inactive) | > 100 µM (inactive) | > 100 µM (inactive) | > 100 µM (inactive) | > 100 µM (inactive) | 7.82 µM (inactive) | > 100 µM (inactive) | > 100 µM (inactive) | > 100 µM | > 100 µM (inactive) | –
Nn1c(S)nnc1CCCCCCCCc1nnc(S)n1N | > 100 µM (inactive) | > 100 µM (inactive) | > 100 µM (inactive) | > 100 µM (inactive) | > 100 µM (inactive) | > 100 µM (inactive) | > 100 µM (inactive) | > 100 µM (inactive) | 90.8 µM (inactive) | – | > 100 µM (inactive) | > 100 µM (inactive) | > 100 µM (inactive) | > 100 µM (inactive) | > 100 µM (inactive) | > 100 µM | > 100 µM (inactive) | –
COC(=O)CC[N+]1([O-])CC1 | > 100 µM (inactive) | 33.2 µM (inactive) | > 100 µM (inactive) | > 100 µM (inactive) | > 100 µM (inactive) | > 100 µM (inactive) | – | > 100 µM (inactive) | > 100 µM (inactive) | > 100 µM (inactive) | > 100 µM (inactive) | – | > 100 µM (inactive) | > 100 µM (inactive) | – | > 100 µM | – | > 100 µM (inactive)
Cc1cn(Cc2ccccc2CCl)c(=O)[nH]c1=O | 23.3 µM (inactive) | – | 4.53 µM (inactive) | 4.68 µM (inactive) | 3.15 µM (inactive) | 15.6 µM (inactive) | 4.72 µM (inactive) | 10.2 µM (inactive) | 4.58 µM (inactive) | 15.3 µM (inactive) | 3.08 µM (inactive) | 10.4 µM (inactive) | 12.3 µM (inactive) | 8.15 µM (inactive) | – | 14.8 µM | 4.24 µM (inactive) | 14.2 µM (inactive)
O=C(NC(CS)C(=O)O)c1c2ccccc2nc2ccccc12 (centres undefined) | > 100 µM (inactive) | > 100 µM (inactive) | 13.6 µM (inactive) | 48.8 µM (inactive) | 22.2 µM (inactive) | 38.7 µM (inactive) | 40.2 µM (inactive) | 11.2 µM (inactive) | 61.7 µM (inactive) | > 100 µM (inactive) | 0.16 µM (active) | > 100 µM (inactive) | 23.7 µM (inactive) | 34 µM (inactive) | 14.5 µM (inactive) | 12.8 µM | > 100 µM (inactive) | –
OCC(O)C(OC1OC(CO)C(O)C(O)C1O)c1nn(-c2ccccc2)c2nc3cc(Cl)c(Cl)cc3cc12 (centres undefined) | > 100 µM (inactive) | > 100 µM (inactive) | > 100 µM (inactive) | > 100 µM (inactive) | > 100 µM (inactive) | > 100 µM (inactive) | > 100 µM (inactive) | > 100 µM (inactive) | > 100 µM (inactive) | > 100 µM (inactive) | – | – | > 100 µM (inactive) | – | – | > 100 µM | > 100 µM (inactive) | –
COc1c(C)c(C/C=C(\C)CCCCO[Si](C(C)C)(C(C)C)C(C)C)c(OC)c2ccccc12 | > 100 µM (inactive) | – | > 100 µM (inactive) | > 100 µM (inactive) | 47.6 µM (inactive) | > 100 µM (inactive) | > 100 µM (inactive) | > 100 µM (inactive) | 49 µM (inactive) | > 100 µM (inactive) | – | > 100 µM (inactive) | > 100 µM (inactive) | > 100 µM (inactive) | > 100 µM (inactive) | > 100 µM | > 100 µM (inactive) | > 100 µM (inactive)
N#Cc1c(-c2ccc(Cl)cc2)c(C#N)c(=O)n(NS(=O)(=O)c2ccccc2)c1-c1ccccc1 | > 25 µM (inactive) | > 25 µM (inactive) | > 25 µM (inactive) | > 25 µM (inactive) | > 25 µM (inactive) | > 25 µM (inactive) | > 25 µM (inactive) | – | > 25 µM (inactive) | > 25 µM (inactive) | > 25 µM (inactive) | > 25 µM (inactive) | > 25 µM (inactive) | > 25 µM (inactive) | > 25 µM (inactive) | > 25 µM | – | –
CS/C(C#N)=C(\C#N)SC | 26.3 µM (inactive) | 23 µM (inactive) | 20.9 µM (inactive) | 2.94 µM (inactive) | 0.233 µM (active) | 16.6 µM (inactive) | 4.11 µM (inactive) | 5.61 µM (inactive) | 5.6 µM (inactive) | 6.55 µM (inactive) | 1.79 µM (inactive) | 6.04 µM (inactive) | 25.7 µM (inactive) | 4.47 µM (inactive) | – | 2.23 µM | 1.77 µM (inactive) | 31.8 µM (inactive)
O=C(O)CNc1ccc2c(c1)Cc1cc(Br)ccc1-2 | 27.5 µM (inactive) | 22 µM (inactive) | 18.5 µM (inactive) | 17.4 µM (inactive) | 0.746 µM (active) | > 44.6 µM (inactive) | 9.29 µM (inactive) | 18 µM (inactive) | 22.1 µM (inactive) | 31.1 µM (inactive) | 23.4 µM (inactive) | 19.5 µM (inactive) | 24.3 µM (inactive) | 24.2 µM (inactive) | – | 31.1 µM | 28.5 µM (inactive) | 4.65 µM (inactive)
O=S(=O)(Cc1ccccc1)c1nnc(S(=O)(=O)c2ccc(Cl)cc2)s1 | 24.8 µM (inactive) | 22 µM (inactive) | 19.5 µM (inactive) | 27 µM (inactive) | 3.39 µM (inactive) | 21.4 µM (inactive) | 32.2 µM (inactive) | 23.3 µM (inactive) | – | 12.2 µM (inactive) | – | 24.3 µM (inactive) | 19.6 µM (inactive) | 23.9 µM (inactive) | 18.1 µM (inactive) | 20.9 µM | 20.5 µM (inactive) | 18.1 µM (inactive)
COc1ccc2c(c1)-c1c(c3cc(OC)ccc3n1CCN(C)C)CC2 | 15.7 µM (inactive) | 11.7 µM (inactive) | 12.1 µM (inactive) | 10.9 µM (inactive) | 10.7 µM (inactive) | 15.8 µM (inactive) | 6.81 µM (inactive) | 15.5 µM (inactive) | 6.35 µM (inactive) | 15.5 µM (inactive) | – | 14.6 µM (inactive) | – | 15.2 µM (inactive) | 14.2 µM (inactive) | 13.6 µM | 14.3 µM (inactive) | 13.7 µM (inactive)
CO[C@H]1/C=C/O[C@@]2(C)Oc3c(C)c(O)c4c(O)c(c(/C=N/N5CCN(C)CC5)c(O)c4c3C2=O)NC(=O)/C(C)=C\C=C\[C@H](C)[C@H](O)[C@@H](C)[C@@H](O)[C@@H](C)[C@H](OC(C)=O)[C@@H]1C [RIFAMPIN] | > 100 µM (inactive) | > 100 µM (inactive) | 97.7 µM (inactive) | > 100 µM (inactive) | 68.7 µM (inactive) | > 100 µM (inactive) | > 100 µM (inactive) | – | 26.2 µM (inactive) | > 100 µM (inactive) | – | > 100 µM (inactive) | – | > 100 µM (inactive) | > 100 µM (inactive) | – | 24.8 µM (inactive) | –
CCOC(=O)C1=C(C)NC(=O)NC1c1coc2cc(C)cc(C)c2c1=O (centres undefined) | 49 µM (inactive) | > 100 µM (inactive) | 36.9 µM (inactive) | 61.5 µM (inactive) | 27.5 µM (inactive) | 36.8 µM (inactive) | 30.7 µM (inactive) | > 86.7 µM (inactive) | 37.7 µM (inactive) | 38.9 µM (inactive) | > 54.5 µM (inactive) | > 100 µM (inactive) | 90.2 µM (inactive) | 32.1 µM (inactive) | – | 25 µM | 24.5 µM (inactive) | 56.2 µM (inactive)
Cc1cn(C2CC(OP(=O)(O)OCC3OC(n4c[n+]([BH2-]C#N)c5c(=O)[nH]c(N)nc54)CC3O)C(CO)O2)c(=O)[nH]c1=O (centres undefined) | > 100 µM (inactive) | > 100 µM (inactive) | > 100 µM (inactive) | > 100 µM (inactive) | > 100 µM (inactive) | > 100 µM (inactive) | > 100 µM (inactive) | > 100 µM (inactive) | > 100 µM (inactive) | – | > 100 µM (inactive) | > 100 µM (inactive) | > 100 µM (inactive) | – | > 100 µM (inactive) | > 100 µM | > 100 µM (inactive) | –
CC(=O)/C=C/CCC(=O)/C=C/C(=O)OC(CCC(=O)/C=C/C(=O)O)CC(C)=O (centres undefined) | > 100 µM (inactive) | – | > 100 µM (inactive) | 1.19 µM (inactive) | > 100 µM (inactive) | > 100 µM (inactive) | > 100 µM (inactive) | > 100 µM (inactive) | 43.8 µM (inactive) | > 100 µM (inactive) | 32.8 µM (inactive) | – | > 100 µM (inactive) | > 100 µM (inactive) | > 100 µM (inactive) | 92.5 µM | > 100 µM (inactive) | –
N#C[C@](CO)(NC(=O)OCc1ccccc1)C(F)F | > 100 µM (inactive) | > 100 µM (inactive) | > 100 µM (inactive) | > 100 µM (inactive) | > 100 µM (inactive) | > 100 µM (inactive) | > 100 µM (inactive) | > 100 µM (inactive) | > 100 µM (inactive) | > 100 µM (inactive) | > 100 µM (inactive) | > 100 µM (inactive) | > 100 µM (inactive) | > 100 µM (inactive) | – | > 100 µM | > 100 µM (inactive) | > 100 µM (inactive)
COC(=O)c1cc2ccc(N)nc2[nH]c1=O | > 100 µM (inactive) | > 100 µM (inactive) | > 100 µM (inactive) | – | – | > 100 µM (inactive) | – | > 100 µM (inactive) | – | > 100 µM (inactive) | – | > 100 µM (inactive) | > 100 µM (inactive) | > 100 µM (inactive) | > 100 µM (inactive) | > 100 µM | > 100 µM (inactive) | –
